This note sets out measurements from patent US4618681A, “Aryl substituted 1H-4,5-dihydro-1,2,3-triazoles as anticonvulsants” (priority 1984, dated 1986).

Entries after “also recorded” stand apart in the source; their conditions may differ. Like-named read-outs stand apart in the source and are kept apart here.

The nature of data set [1]: Phase I anticonvulsant screening (MES and scMet tests). As to conditions: for Anticonvulsant Activity Group Classification: Phase I screening, MES and scMet tests, mouse; for signs of neurological deficit: at 600 mg/kg (compound 7) and 300 mg/kg (compound 12); for anticonvulsant potency: in words.
The format of data set [2] is in vivo. As to conditions: Phase V, mice, i.p.
Experimental: (§1) The profile of anticonvulsant activity for each substance was established by five tests: one electrical and four chemical. The electrical test employed was the maximal electroshock seizure pattern test. […] Except for the sc Strych Test, these tests measure the ability of anticonvulsants to afford complete protection against threshold seizures induced by the subcutaneous injection of the CD97 of the convulsant agent.
(§2) All convulsants were administered subcutaneously into a loose fold of skin on the back of the neck in a volume of 0.01 ml/g body weight in mice; Metrazol was injected in a volume of 0.02 ml/10 g body weight in rats. The convulsant drugs were administered at the previously determined time of peak anticonvulsant action of the drug under study. […] Except for strychnine, absence of a five-second episode of clonic spasms (threshold seizure) was taken as protection. In the case of strychnine, complete abolition of the hindleg tonic extension was taken as protection.
For data set [3] the following is noted: Phase V, mice, i.p.
Experimental: as §1, §2
The nature of data set [4]: Subcutaneous Metrazol Seizure Threshold Test (sc Met) in mice. The settings on record: for effectiveness by the sc Met test: Phase V; for effectiveness by the sc Met test / ED50 sc Met / Time of Test / time of peak effect (TPE), sc Met: i.p.
Experimental: (§3) All animals were allowed free access to both food (S/L Custom Lab Diet-7) and water, except when they were removed from their cages for the experimental procedure.
(§4) The drugs were administered either orally or intraperitoneally in a volume of 0.01 ml/g body weight in mice and 0.04 ml/10 g in rats. All tests were conducted at the previously determined time of peak drug effect.
as §1, §2
Data set [5] is described as follows: Subcutaneous Metrazol Seizure Threshold Test (sc Met) in rats. Type of data set: in vivo, rats (male albino, Sprague Dawley). The settings on record: Rattus norvegicus, po, read-out: ED50 sc Met.
Experimental: as §4, §1, §2
For data set [6] the following is noted: mice, i.p.
Experimental: as §3, §4, §1, §2
For data set [7] the following is noted: mice; for effectiveness by the sc Pic test: Phase V, i.p.
Experimental: as §1, §2
The conditions of data set [8]: mice.
Experimental: as §3, §4, §1
Data set [9] is described as follows: in vivo. On the set-up: species or system mice.
Experimental: (§5) The profile of toxicity for each test drug was established by the following procedures: firstly, the minimal neurotoxic dose (TD50) was determined by the rotorod procedure at the time of peak neurotoxic effect. When a normal mouse is placed on a knurled rod one inch in diameter rotating at a speed of six rpm it can maintain its equilibrium for long periods of time. Neurological deficit is indicated by inability of the mouse to maintain its equilibrium for one minute in each of three trials on this rotating rod. Neurological deficit in rats is indicated by ataxia, loss of placing response and muscle tone. […] These observations also provide preliminary information essential for the subsequent determination of the HD50 and LD50. The HD50 represents the median dose at which 50% of animals lose their righting reflex.
Data set [10] in a line: Time of peak effect (TPE) over several tests in rats. The settings on record: p.o., Compound 9: toxicity, MES and sc Met tests.
Experimental: as §4
The nature of data set [11]: Time of peak effect (TPE) over several tests in mice. As to conditions: i.p.
Experimental: as §4
Data set [12] in a line: in vivo. As to conditions: mice, i.p., 24 hour period.
Experimental: as §5
Setting [13] is: Mus musculus, ip, read-out: ED50 sc Met.
Where [14] appears, read: Mus musculus, po, read-out: ED50 scMet.

As to `FC(F)(F)c1cccc(N2N=NCC2c2ccccc2Cl)c1` (stereo not drawn) [Compound 1, 1-m-trifluoromethylphenyl-5-(o-chlorophenyl)-Δ^2-1,2,3-triazoline], the “Anticonvulsant Activity Group Classification” value in data set [1] is on record as “II (Class II compounds show anticonvulsant activity at doses greater than 100 mg/kg or show activity at 100 mg/kg which is not reinforced by similar activity at 300 mg/kg)”.

For `FC(F)(F)c1ccc(N2N=NCC2c2ccccc2Cl)cc1` (stereo not drawn) [Compound 2], the “Anticonvulsant Activity Group Classification” value in data set [1] is “II (Class II compounds show anticonvulsant activity at doses greater than 100 mg/kg or show activity at 100 mg/kg which is not reinforced by similar activity at 300 mg/kg)”.

Take `CCc1ccc(N2N=NCC2c2ccccc2Cl)cc1` (stereo not drawn) [Compound 3, 1-(p-Ethylphenyl)-5-(o-chlorophenyl)-Δ^2-1,2,3-triazoline]: the “Anticonvulsant Activity Group Classification” value in data set [1] is reported as “II (Class II compounds show anticonvulsant activity at doses greater than 100 mg/kg or show activity at 100 mg/kg which is not reinforced by similar activity at 300 mg/kg)”.

With `O=[N+]([O-])c1ccccc1C1CN=NN1c1cccc(Cl)c1` (stereo not drawn) [Compound 4, 1-(m-Chlorophenyl)5-(o-nitrophenyl)-Δ^2-1,2,3-triazoline], the “Anticonvulsant Activity Group Classification” value in data set [1] is “II (Class II compounds show anticonvulsant activity at doses greater than 100 mg/kg or show activity at 100 mg/kg which is not reinforced by similar activity at 300 mg/kg)”.

Regarding `O=[N+]([O-])c1cccc(N2N=NCC2c2ccc(Cl)cc2Cl)c1` (stereo not drawn) [Compound 5, 1-(m-Nitrophenyl)-5-(2,4-dichlorophenyl)-Δ^2-1,2,3-triazoline], the “Anticonvulsant Activity Group Classification” value in data set [1] is recorded as “II (Class II compounds show anticonvulsant activity at doses greater than 100 mg/kg or show activity at 100 mg/kg which is not reinforced by similar activity at 300 mg/kg)”.

With `Clc1cccc(Cl)c1C1CN=NN1c1ccc(Br)cc1` (stereo not drawn) [Compound 6, 1-(p-Bromophenyl)-5-(2,6-dichlorophenyl)-Δ^2-1,2,3-triazoline], the “Anticonvulsant Activity Group Classification” value in [1] is reported as “II (Class II compounds show anticonvulsant activity at doses greater than 100 mg/kg or show activity at 100 mg/kg which is not reinforced by similar activity at 300 mg/kg)”.

In turn, `c1ccc(N2N=NCC2c2ccncc2)cc1` (stereo not drawn) [Compound 7, 1-(Phenyl)-5-(4-pyridyl)-Δ^2-1,2,3-triazoline] registered a protection in [1] (600 mg/kg) of 100%. In data set [1], the “Anticonvulsant Activity Group Classification” value is listed as “II (Class II compounds show anticonvulsant activity at doses greater than 100 mg/kg or show activity at 100 mg/kg which is not reinforced by similar activity at 300 mg/kg)” and the “signs of neurological deficit” value is “without any signs of neurological deficit”.

As to `CCOC(=O)c1ccc(N2N=NCC2c2ccncc2)cc1` (stereo not drawn) [Compound 8, 1-(p-Ethoxycarbonyl)-5-(4-pyridyl)-Δ^2-1,2,3-triazoline], in data set [1], the “Anticonvulsant Activity Group Classification” value is recorded as “II (Class II compounds show anticonvulsant activity at doses greater than 100 mg/kg or show activity at 100 mg/kg which is not reinforced by similar activity at 300 mg/kg)”.

With `Fc1ccc(N2N=NCC2c2ccncc2)cc1` (stereo not drawn) [Compound 10, 1-(p-Fluorophenyl)-5-(4-pyridyl)Δ^2-1,2,3-triazoline], in data set [1], the anticonvulsant potency entry is on record as “most potent”.

`Cc1ccc(N2N=NCC2c2ccncc2)cc1` (stereo not drawn) [Compound 11, 1-(p-Methylphenyl)-5-(4-pyridyl)-Δ^2-1,2,3-triazoline]: in [1], the “Anticonvulsant Activity Group Classification” value was “II (Class II compounds show anticonvulsant activity at doses greater than 100 mg/kg or show activity at 100 mg/kg which is not reinforced by similar activity at 300 mg/kg)”.

Compound `Clc1cccc(N2N=NCC2c2ccncc2)c1` (stereo not drawn) [Compound 12, 1-(m-chlorophenyl)-5-(4-pyridyl)-Δ^2-1,2,3-triazoline] yielded a protection in [1] (300 mg/kg) of 100%. In [1], the “Anticonvulsant Activity Group Classification” value was “II (Class II compounds show anticonvulsant activity at doses greater than 100 mg/kg or show activity at 100 mg/kg which is not reinforced by similar activity at 300 mg/kg)” and the “signs of neurological deficit” value is reported as “without any signs of neurological deficit”.

As for `c1ccc(N2N=NCC2c2ccccn2)cc1` (stereo not drawn) [Compound 13, 1-(phenyl)-5-(2-pyridyl)-Δ^2-1,2,3-triazoline], in data set [1], the “Anticonvulsant Activity Group Classification” value is listed as “II (Class II compounds show anticonvulsant activity at doses greater than 100 mg/kg or show activity at 100 mg/kg which is not reinforced by similar activity at 300 mg/kg)”.

Consider `Clc1ccc(N2N=NCC2c2ccccn2)cc1` (stereo not drawn) [Compound 14, 1-(p-Chlorophenyl)-5-(2-pyridyl)-Δ^2-1,2,3-triazoline], for which, in [1], the “Anticonvulsant Activity Group Classification” value is reported as “II (Class II compounds show anticonvulsant activity at doses greater than 100 mg/kg or show activity at 100 mg/kg which is not reinforced by similar activity at 300 mg/kg)”.

Take `O=[N+]([O-])c1cccc(N2N=NCC2c2ccc3ccccc3n2)c1` (stereo not drawn) [Compound 15, 1-(m-Nitrophenyl)-5-(2-quinolyl)-Δ^2-1,2,3-triazoline]: in data set [1], the “Anticonvulsant Activity Group Classification” value is on record as “II (Class II compounds show anticonvulsant activity at doses greater than 100 mg/kg or show activity at 100 mg/kg which is not reinforced by similar activity at 300 mg/kg)”.

Regarding `FC(F)(F)c1ccc(N2N=NCC2c2ccncc2)cc1` (stereo not drawn) [Compound 16, 1-(p-trifluoromethylphenyl)-5-(4-pyridyl)-Δ^2-1,2,3-triazoline], the anticonvulsant potency result in data set [1] is “most potent”.

With `FC(F)(F)c1cccc(N2N=NCC2c2ccncc2)c1` (stereo not drawn) [Compound 17, 1-(m-trifluoromethylphenyl)-5-(4-pyridyl)-Δ^2-1,2,3-triazoline], the anticonvulsant potency result in data set [1] was “most potent”.

`Fc1ccc(N2N=NCC2c2cccnc2)cc1Cl` (stereo not drawn) [Compound 18, 1-(m-chloro-p-fluorophenyl)-5-(3-pyridyl)-Δ ^2-1,2,3-triazoline]: the “Anticonvulsant Activity Group Classification” value in data set [1] is “II (Class II compounds show anticonvulsant activity at doses greater than 100 mg/kg or show activity at 100 mg/kg which is not reinforced by similar activity at 300 mg/kg)”.

Broadly, the ED50 is the midpoint of the dose-response relation. Take `CCC1(C)CC(=O)NC1=O` (stereo not drawn) [Ethosuximide, ethosuximide]: the “Time of Test / time of peak effect (TPE), Rotorod” value (mouse, in vivo, ip) is listed as 1/2. Also, the “TD50 (rotorod)” value (mouse, in vivo, po) is reported as 879.21 mg/kg. In addition, the “animals protected, sc Strych test” value in data set [2] is at most 62%. Moreover, the “effectiveness by the sc Bic test” value in data set [3] is given as “had to be given in toxic doses to protect against sc Bic seizures”. In [4] (mice), the “effectiveness by the sc Met test” value is “effective by the sc Met, sc Bic, and sc Pic tests”; the “ED50 sc Met” value worked out at 130.35 mg/kg. Moreover, in [4] (mice, p.o.), the “ED50 scMet” value amounted to 192.71 mg/kg. Further, the ED50 in data set [5] (rats, p.o.) was determined as 54 mg/kg. In addition, the “Time of Test / time of peak effect (TPE), sc Met” value (“Time of Test / time … sc Met” for short) in data set [6] is on record as 1/2. Further, the “effectiveness by the sc Pic test” value in [7] is “effective by the sc Met, sc Bic, and sc Pic tests”. Besides, in data set [8] (i.p.), the “Time of Test / time of peak effect (TPE), MES” value (“Time of Test / time … MES” for short) is 1/2. For the same compound, in the data set “in vivo [9]” (mouse, in vivo, ip), the “Slope, regression line, HD50 (righting reflex)” value (from here on “Slope, regression line, HD50”) was found to be 16.43 and the “Time of Test / time of peak toxicity, righting reflex” value (from here on “Time of Test / time of peak toxicity”) is on record as 1/2.

In the case of `C1CCc2nnnn2CC1` [Metrazol, pentylenetetrazole], in data set [4] (Mus musculus, sc, read-out: sc CD97 of Metrazol), the ED97 worked out at 85 mg/kg.

Regarding `CCC1(c2ccccc2)C(=O)NC(=O)NC1=O` [Phenobarbital, phenobarbital], in data set [10], the TPE result is recorded as “five”. The “effectiveness by the sc Strych test” value in [2] was “had to be given in toxic doses in order to protect; also recorded: effective in toxic doses”. Further, the “effectiveness by the sc Bic test” value in [3] was “effective against sc Met, sc Bic, and sc Pic in nontoxic doses”. Besides, the median effective dose (ED50) in data set [4] (setting [13]) was 13.2 mg/kg; in data set [4] (setting [14]), 12.6 mg/kg; in data set [5], 11.6 mg/kg. Further, in data set [4] (mice), the “Time of Test / time … sc Met” value is 1 h. Also, the “effectiveness by the sc Pic test” value in [7] was “effective against sc Met, sc Bic, and sc Pic in nontoxic doses”. Besides, the entries for the “ED50 MES” value in data set [8] (i.p.) and in data set [8] (p.o.) were 21.78 mg/kg and 20.09 mg/kg, respectively. The “Time of Test / time … MES” value in [8] (i.p.) is 1 h. Besides, in “in vivo [9]” (mice, i.p.), the “Slope, regression line, HD50” value was determined as 8.41.

In the case of `O=C1NC(=O)C(c2ccccc2)(c2ccccc2)N1` [Phenytoin, phenytoin], under “mice, i.p.”, the “Time of Test / time of peak effect (TPE), Rotorod” value is 2 h. The “animals protected, sc Strych test” value in [2] is on record as 50%. For the same compound, the “effectiveness by the sc Bic test” value in data set [3] was “ineffective against Metrazol, bicuculline, and picrotoxin”. The “TPE by all tests” value in data set [11] is 2 h. Also, the “effectiveness by the sc Met test” value in [4] (mice) is “ineffective against Metrazol, bicuculline, and picrotoxin”. Moreover, the “ED50 sc Met” value in data set [4] (mice, listed as phenytion) is recorded as “did not protect against subcutaneous Metrazol seizures”. Further, the “effectiveness by the sc Pic test” value in [7] was “ineffective against Metrazol, bicuculline, and picrotoxin”. The “Slope, regression line, HD50” value in the data set “in vivo [9]” (mice, i.p.) came out at 14.03. For the same compound, the “Time of Test / time of peak toxicity” value in the data set “in vivo [9]” (mouse, in vivo, ip) was determined as 12 h.

As for `CCCC(CCC)C(=O)O` [Valproate, valproate], the ED50 in [4] (setting [13]) came to 149 mg/kg; in data set [4] (setting [14]) it was 388 mg/kg; in data set [5] (rats, p.o.), 180 mg/kg. Besides, the “Time of Test / time … sc Met” value in data set [4] (mice) is given as 1/4. Further, the “Time of Test / time … MES” value in [8] (i.p.) is recorded as 1/4. Also, the “HD50 (righting reflex)” value in the data set “in vivo [9]” (mice, i.p.) worked out at 885.53 mg/kg. Moreover, the “Slope, regression line, HD50” value in the data set “in vivo [9]” (mice, i.p.) amounted to 12.46. Further, in the data set “in vivo [9]” (mice, i.p.), the “Time of Test / time of peak toxicity” value is recorded as 1/4. For the same compound, in “in vivo [12]”, the “LD50 (lethality)” value came out at 1104.62 mg/kg.

Take picrotoxin: in [7] (subcutaneous), the “sc CD97 of picrotoxin” value is listed as 3.15 mg/kg.
